From PubChem BioAssay (NCI)
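Protocol summary: plate cells (96-well), add compound at 5 concentrations, incubate 48 h, interpolate endpoints linearly. TGI: total growth inhibition.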

Legend:
Assay in all cases: NCI anticancer screen, dose series, 48 h
M14 melanoma = tested on: M14 melanoma
SNB-19 CNS = tested on: SNB-19 CNS
OVCAR-8 ovarian = tested on: OVCAR-8 ovarian
XF 498 CNS = tested on: XF 498 CNS
CCRF-CEM leukemia = tested on: CCRF-CEM leukemia
DMS 114 small cell lung = tested on: DMS 114 small cell lung
OVCAR-5 ovarian = tested on: OVCAR-5 ovarian
RXF 393 renal = tested on: RXF 393 renal
MOLT-4 leukemia = tested on: MOLT-4 leukemia
A498 renal = tested on: A498 renal
LXFL 529 NSCLC = tested on: LXFL 529 NSCLC
NCI-H460 lung = tested on: NCI-H460 lung
U251 CNS = tested on: U251 CNS
UO-31 renal = tested on: UO-31 renal
HT29 colon = tested on: HT29 colon
SK-OV-3 ovarian = tested on: SK-OV-3 ovarian
OVCAR-3 ovarian = tested on: OVCAR-3 ovarian
DMS 273 small cell lung = tested on: DMS 273 small cell lung
K-562 leukemia = tested on: K-562 leukemia
HOP-92 NSCLC = tested on: HOP-92 NSCLC
NCI-H226 lung = tested on: NCI-H226 lung
SNB-75 CNS = tested on: SNB-75 CNS
SN12C renal = tested on: SN12C renal
COLO 205 colon = tested on: COLO 205 colon
UACC-257 melanoma = tested on: UACC-257 melanoma
SK-MEL-2 melanoma = tested on: SK-MEL-2 melanoma
SR leukemia = tested on: SR leukemia
SF-268 CNS = tested on: SF-268 CNS
NCI-H522 lung = tested on: NCI-H522 lung
SK-MEL-5 melanoma = tested on: SK-MEL-5 melanoma
DLD-1 colon = tested on: DLD-1 colon
HCT-15 colon = tested on: HCT-15 colon
A549 NSCLC = tested on: A549 NSCLC
ACHN renal = tested on: ACHN renal
CAKI-1 renal = tested on: CAKI-1 renal
SW-620 colon = tested on: SW-620 colon
SK-MEL-28 melanoma = tested on: SK-MEL-28 melanoma
HOP-62 NSCLC = tested on: HOP-62 NSCLC
HCT-116 colon = tested on: HCT-116 colon
TK-10 renal = tested on: TK-10 renal
EKVX NSCLC = tested on: EKVX NSCLC
786-0 renal = tested on: 786-0 renal
LOX IMVI melanoma = tested on: LOX IMVI melanoma
HL-60(TB) leukemia = tested on: HL-60(TB) leukemia
RPMI-8226 leukemia = tested on: RPMI-8226 leukemia
KM20L2 colon = tested on: KM20L2 colon
SNB-78 CNS = tested on: SNB-78 CNS
KM12 colon = tested on: KM12 colon
OVCAR-4 ovarian = tested on: OVCAR-4 ovarian
HOP-18 NSCLC = tested on: HOP-18 NSCLC
MALME-3M melanoma = tested on: MALME-3M melanoma
UACC-62 melanoma = tested on: UACC-62 melanoma
NCI-H23 lung = tested on: NCI-H23 lung
M19-MEL melanoma = tested on: M19-MEL melanoma
HCC-2998 colon = tested on: HCC-2998 colon
SF-295 CNS = tested on: SF-295 CNS
SF-539 CNS = tested on: SF-539 CNS
IGROV1 ovarian = tested on: IGROV1 ovarian

Work on `NC(CCC(=O)Nc1ccc(O)cc1)C(=O)O` (centres undefined) yielded a TGI (M14 melanoma) of over 100 µM, a TGI (SNB-19 CNS) of over 100 µM and a TGI (OVCAR-8 ovarian) of over 100 µM. For the same molecule, the TGI (XF 498 CNS) was over 100 µM, the TGI (CCRF-CEM leukemia) was over 100 µM and the TGI (DMS 114 small cell lung) was over 100 µM. For the same molecule, the TGI (OVCAR-5 ovarian) was over 100 µM, the TGI (RXF 393 renal) was over 100 µM and the TGI (MOLT-4 leukemia) was over 100 µM. For the same molecule, the TGI (A498 renal) was over 100 µM, the TGI (LXFL 529 NSCLC) was over 100 µM and the TGI (NCI-H460 lung) was over 100 µM. The TGI (U251 CNS) was over 100 µM, the TGI (UO-31 renal) was over 100 µM and the TGI (HT29 colon) was over 100 µM. The TGI (SK-OV-3 ovarian) was over 100 µM, the TGI (OVCAR-3 ovarian) was over 100 µM and the TGI (DMS 273 small cell lung) was over 100 µM. It also gave a TGI (K-562 leukemia) of over 100 µM, a TGI (HOP-92 NSCLC) of over 100 µM and a TGI (NCI-H226 lung) of over 100 µM. It also gave a TGI (SNB-75 CNS) of over 100 µM, a TGI (SN12C renal) of over 100 µM and a TGI (COLO 205 colon) of over 100 µM. The TGI (UACC-257 melanoma) was over 100 µM, the TGI (SK-MEL-2 melanoma) was over 100 µM and the TGI (SR leukemia) was over 100 µM. It also gave a TGI (SF-268 CNS) of over 100 µM, a TGI (NCI-H522 lung) of over 100 µM and a TGI (SK-MEL-5 melanoma) of over 100 µM. For the same molecule, the TGI (DLD-1 colon) was over 100 µM, the TGI (HCT-15 colon) was over 100 µM and the TGI (A549 NSCLC) was over 100 µM. It also gave a TGI (ACHN renal) of over 100 µM, a TGI (CAKI-1 renal) of over 100 µM and a TGI (SW-620 colon) of over 100 µM. For the same molecule, the TGI (SK-MEL-28 melanoma) was over 100 µM, the TGI (HOP-62 NSCLC) was over 100 µM and the TGI (HCT-116 colon) was over 100 µM. It also gave a TGI (TK-10 renal) of over 100 µM, a TGI (EKVX NSCLC) of over 100 µM and a TGI (786-0 renal) of over 100 µM. For the same molecule, the TGI (LOX IMVI melanoma) was over 100 µM, the TGI (HL-60(TB) leukemia) was over 100 µM and the TGI (RPMI-8226 leukemia) was over 100 µM. It also gave a TGI (KM20L2 colon) of over 100 µM, a TGI (SNB-78 CNS) of over 100 µM and a TGI (KM12 colon) of over 100 µM. The TGI (OVCAR-4 ovarian) was over 100 µM, the TGI (HOP-18 NSCLC) was over 100 µM and the TGI (MALME-3M melanoma) was over 100 µM. The TGI (UACC-62 melanoma) was over 100 µM.

Molecule `O=C(CC(=O)n1nc(-c2ccccc2)c(N=Nc2ccccc2Cl)c1-c1ccccc1)Nc1ccc(Cl)cc1` has a TGI (M14 melanoma) of over 100 µM, a TGI (SNB-19 CNS) of over 100 µM and a TGI (OVCAR-8 ovarian) of over 100 µM. The TGI (NCI-H23 lung) was over 100 µM, the TGI (XF 498 CNS) was over 100 µM and the TGI (CCRF-CEM leukemia) was over 68.5 µM. It also gave a TGI (DMS 114 small cell lung) of over 56.6 µM, a TGI (OVCAR-5 ovarian) of over 100 µM and a TGI (M19-MEL melanoma) of 45.7 µM. It also gave a TGI (RXF 393 renal) of over 100 µM, a TGI (MOLT-4 leukemia) of over 100 µM and a TGI (A498 renal) of over 100 µM. For the same molecule, the TGI (LXFL 529 NSCLC) was over 100 µM, the TGI (NCI-H460 lung) was over 78.2 µM and the TGI (U251 CNS) was over 55.6 µM. For the same molecule, the TGI (UO-31 renal) was over 100 µM, the TGI (HCC-2998 colon) was over 100 µM and the TGI (HT29 colon) was over 89.5 µM. The TGI (SK-OV-3 ovarian) was over 100 µM, the TGI (OVCAR-3 ovarian) was over 100 µM and the TGI (DMS 273 small cell lung) was over 100 µM. It also gave a TGI (K-562 leukemia) of over 85.8 µM, a TGI (HOP-92 NSCLC) of over 100 µM and a TGI (NCI-H226 lung) of over 100 µM. It also gave a TGI (SNB-75 CNS) of over 100 µM, a TGI (SN12C renal) of over 100 µM and a TGI (COLO 205 colon) of over 64 µM. The TGI (UACC-257 melanoma) was over 100 µM, the TGI (SK-MEL-2 melanoma) was over 100 µM and the TGI (SR leukemia) was over 100 µM. The TGI (SF-268 CNS) was over 100 µM, the TGI (NCI-H522 lung) was over 100 µM and the TGI (SK-MEL-5 melanoma) was over 100 µM. For the same molecule, the TGI (DLD-1 colon) was over 65.2 µM, the TGI (HCT-15 colon) was over 59.9 µM and the TGI (SF-295 CNS) was over 100 µM. It also gave a TGI (A549 NSCLC) of over 79.8 µM, a TGI (ACHN renal) of over 100 µM and a TGI (CAKI-1 renal) of over 100 µM. It also gave a TGI (SW-620 colon) of over 74 µM, a TGI (SK-MEL-28 melanoma) of over 100 µM and a TGI (HOP-62 NSCLC) of over 100 µM. It also gave a TGI (HCT-116 colon) of over 55.8 µM, a TGI (TK-10 renal) of over 100 µM and a TGI (SF-539 CNS) of over 100 µM. The TGI (EKVX NSCLC) was over 100 µM, the TGI (786-0 renal) was over 83.4 µM and the TGI (LOX IMVI melanoma) was over 59.7 µM. It also gave a TGI (HL-60(TB) leukemia) of over 60.5 µM, a TGI (RPMI-8226 leukemia) of over 66.1 µM and a TGI (KM20L2 colon) of over 100 µM. The TGI (IGROV1 ovarian) was over 100 µM, the TGI (KM12 colon) was over 100 µM and the TGI (OVCAR-4 ovarian) was over 100 µM. The TGI (HOP-18 NSCLC) was over 100 µM, the TGI (MALME-3M melanoma) was over 100 µM and the TGI (UACC-62 melanoma) was over 100 µM.
